{"source": "patent US4912036A", "about": "“Rapid differentiation of bacteria using cyclic polypeptide antibiotics” (Eastman Kodak Company, priority 1986, dated 1990)", "key": {"K. pneumoniae": {"system": "K. pneumoniae", "assay": "RIND VII reduction solution assay, ΔOD 635 nm", "type": "cell-based, Klebsiella pneumoniae", "details": "K. pneumoniae 7 × 10^7 /ml, antibiotic 10^-4 molar"}, "P. vulgaris": {"system": "P. vulgaris", "assay": "RIND VII reduction solution assay, ΔOD 635 nm", "type": "cell-based, Proteus vulgaris", "details": "P. vulgaris 7 × 10^7 /ml, antibiotic 10^-4 molar", "description": "(§1) Bacterial suspensions were prepared by growing the cells in BHT broth to stationary phase overnight at 37° C. P. auruginosa was grown with agitation. About 40 ml of each overnight culture was centrifuged, decanted and washed once with 0.05 molar potassium phosphate buffer or 0.05 molar N-2-hydroxy-ethylpiperazine-N'-2-ethanesulfonic acid (HEPES) buffer, pH 7.8, and resuspended in buffer.\n(§2) TERGITOL 7 anionic surfactant was used to differentiate viable bacteria according to the prior art method. Various concentrations of TERGITOL 7 surfactant were mixed with a 10% glucose solution (50 μl), 3-(4,5-dimethyl-2-thiazolyl)-2,5-diphenyl-2N-tetrazolium bromide (MTT) (25 μl at 5 mg/ml methanol) or a RIND VII dispersion (1.5 ml) and phenazine methosulfate ETA (25 μl at 3 mg/ml methanol). The volume of each test solution was brought to 3 ml with potassium phosphate buffer. A cell suspension (100 μl at about 10^8 cells/ml) was then added. The solutions were incubated at 37° C. for 15 and 30 minutes in the presence of either E. coli, a gram(-) bacterium, or S. aureus, a gram(+) bacterium. The amount of dye formed was then determined visually, and graded as follows: \"O\" indicates no dye formation, +/- indicates faint dye formation, 1+ indicates light dye formation, 2+ indicates moderate dye formation, 3+ indicates strong dye formation, and 4+ indicates very strong dye formation. […]"}, "P. aeruginosa": {"system": "P. aeruginosa", "assay": "RIND VII reduction solution assay, ΔOD 635 nm", "type": "cell-based, Pseudomonas aeruginosa", "details": "antibiotic 10^-4 molar", "description": "as §1, §2"}, "E. coli": {"system": "E. coli", "assay": "RIND XXIX reduction solution assay, Δ fluorescence", "type": "cell-based, Escherichia coli", "details": "E. coli (gram -) about 5×10^7 cells/ml, gramicidin S 0.1 mg/ml, 37° C.", "description": "as §1\nDispersions containing RIND compounds were prepared by dissolving the RIND compound in N,N-dimethylformamide (DMF) at 16 mg compound per ml of solvent. An aliquot (250 μl) of the resulting solution was added to 500 μl of TRITON X-100 surfactant. This mixture was then added dropwise with stirring to 25 ml of 0.05 molar HEPES buffer. A dispersion of RIND XXIX was prepared similarly except that DMF was acidified with 0.1% sulfuric acid. Compositions containing water-compatible RIND compounds were prepared as described above except the surfactant was omitted.\nEach test solution contained the following: dispersion of RIND XXIX (25 μl) prepared as described above, glucose (400 μl of 10% aqueous solution), tryptose (400 μl of 10% aqueous solution), trimethyl-1,4-benzoquinone ETA (500 μl of 1.5 mg/ml methanol). Aliquots (200 μl) of the mixture were mixed with solutions of the antibiotics (50 μl). The cell suspensions (50 μl) were then added. The final concentration of gramcidin S and tyrocidin were 0.1 mg/ml and 3.3 mg/ml, respectively. The final cell concentration was about 5×10^7 cells/ml. Cell control solutions contained all reagents except antibiotics. Background controls consisted of both buffer and solution controls. […]\nThe solutions were incubated at 37° C. for 30 minutes, and the change in fluorescence emission (Δ fluorescence) was determined as the difference between the readings taken when the solutions were first mixed and then after 30 minutes incubation. Measurements were made in a commercially available MICROFLUOR Reader (available from Dynatech Laboratories, Alexandria, Virginia, U.S.A.), modified with an excitation filter at 540 nm, an emission filter at 620 nm and a Xenon lamp. […]"}, "S. faecalis": {"system": "S. faecalis", "assay": "MTT reduction solution assay, ΔOD 540 nm", "type": "cell-based, Streptococcus faecalis", "details": "S. faecalis (+) 5×10^7, gramicidin S 0.00625 mg/ml, 37° C.", "description": "(§3) These examples illustrate the differentiation of bacteria using a tetrazolium salt and phenolic dye as the reducible compounds and two cyclic polypeptide antibiotics according to the present invention. The tetrazolium salt was 3-(4,5-dimethyl-2-thiazolyl) -2,5-diphenyl-2H-tetrazolium bromide (MTT) which forms a colored formazan dye when reduced. The phenolic dye was 2,6-dichloroindophenol (DCIP) which forms a colorless species when reduced.\n(§4) Solutions of the reducible compounds were prepared with the following: HEPES buffer (3 ml, 0.05 molar, pH 7.5), TRITON X-100 nonionic surfactant (1% concentration), glucose (50 μl of 10% in water), tryptose (50 μl of a 10% solution in water), MTT (25 μl of 5 mg/ml methanol) or DCIP (25 μl of 3 mg/ml methanol) and phenazine methosultate ETA (25 μl of 3 mg/ml methanol).\n(§5) Test solutions were prepared from the following: reducible compound solution from above (200 μl), 50 μl of either gramicidin S solution (6 mg/ml methanol and 9 ml of buffer) or tyrocidin solution (100 mg/ml methanol and 8 ml of buffer) and 50 μl of cell suspension. […] The change in optical density (ΔOD) was determined after 30 minutes at 37° C. at 540 nm for the MTT assay and at 620 nm for the DCIP assay using a commercially available spectrophotometer."}, "E. cloacae": {"system": "E. cloacae", "assay": "DCIP reduction solution assay, ΔOD 620 nm", "type": "cell-based, Enterobacter cloacae", "details": "E. cloacae (-) 5×10^7, gramicidin S 0.00625 mg/ml, 37° C.", "description": "as §3, §4, §5"}, "[1]": {"system": "viable gram-positive and gram-negative bacteria", "assay": "Differentiation in RIND XXIX solution assays, overall result", "type": "cell-based", "details": "gramicidin S 0.1 mg/ml, tyrocidin 3.3 mg/ml", "description": "Each test solution contained the following: dispersion of RIND XXIX (25 μl) prepared as described above, glucose (400 μl of 10% aqueous solution), tryptose (400 μl of 10% aqueous solution), trimethyl-1,4-benzoquinone ETA (500 μl of 1.5 mg/ml methanol). Aliquots (200 μl) of the mixture were mixed with solutions of the antibiotics (50 μl). The cell suspensions (50 μl) were then added. The final concentration of gramcidin S and tyrocidin were 0.1 mg/ml and 3.3 mg/ml, respectively. The final cell concentration was about 5×10^7 cells/ml. Cell control solutions contained all reagents except antibiotics. Background controls consisted of both buffer and solution controls. The buffer control contained all reagents except antibiotics and cells. The solution control contained all reagents except cells.\nThe solutions were incubated at 37° C. for 30 minutes, and the change in fluorescence emission (Δ fluorescence) was determined as the difference between the readings taken when the solutions were first mixed and then after 30 minutes incubation. Measurements were made in a commercially available MICROFLUOR Reader (available from Dynatech Laboratories, Alexandria, Virginia, U.S.A.), modified with an excitation filter at 540 nm, an emission filter at 620 nm and a Xenon lamp.\nThis example illustrates the practice of this invention to identify a Proteus species in solution. Test solutions and cell control solutions were prepared and tested as described in Example 2 and 3 except that polymixin B was used at 0.01 mg/ml of methanol. The final cell concentration was about 5×10^7 cells/ml."}}}
{"substance": "gramicidin S", "values": [{"measurement": "Corrected ΔOD (15 Minutes)", "setting": "K. pneumoniae", "result": "> 2.0"}, {"measurement": "Corrected ΔOD (15 Minutes)", "setting": "P. vulgaris", "result": "> 2.0"}, {"measurement": "Corrected ΔOD (15 Minutes)", "setting": "P. aeruginosa; P. aeruginosa 7 × 10^7 /ml", "result": 0.107}, {"measurement": "Corrected ΔOD (15 Minutes)", "setting": "P. aeruginosa; P. aeruginosa, cell concentration 1.5 × 10^8 /ml", "result": "> 2.0"}, {"measurement": "Δ Fluorescence (30 Minutes)", "setting": "E. coli", "result": "> 4000"}, {"measurement": "ΔOD, 540 nm after 30 Minutes", "setting": "S. faecalis", "result": 0.073}, {"measurement": "ΔOD, 620 nm after 30 Minutes", "setting": "E. cloacae", "result": 0.997}, {"measurement": "differentiation between viable gram-positive and gram-negative bacteria, in words", "setting": "[1]", "result": "can be used with RIND XXIX to differentiate between viable gram-positive and gram-negative bacteria"}]}
